The record followed here is US6590093B1, “Orthoester protecting groups” (Dharmacon, Inc., priority 1998, dated 2003).

Data set [1] is described as follows: acid lability (half life) of the 2′-orthoester protecting group on uridine. The conditions noted are these: pH 2, 25° C.; after ester hydrolysis of the ACE orthoester.
The conditions of data set [2]: buffer, pH 2.

A value given as a limit tells only on which side of the number the result lay.

Take `O=c1ccn(C2OC(CO)C(O)C2OC(OCCO)OCCO)c(=O)[nH]1` (centres unmarked) [2′-modified uridine]: the “times more labile (than 2′-ACE-uridine)” value in data set [1] worked out at 10 times. The half life in data set [2] was < 45 s.
